These results are taken from patent US20250026765A1, “SPIROHETEROCYCLE DERIVATIVE HAVING SEROTONIN RECEPTOR BINDING ACTIVITY” (Shionogi & Co., Ltd., priority 2021, published 2025).

For assay [1], the target named is human recombinant 5-HT2A receptor (Homo sapiens (Human), UniProt P28223). Put plainly: 5-HT2A receptor binding inhibition test ([3H]-Ketanserin). The note with it: Jump-In HEK cell membrane, 25° C. 1.5 hours. The method in brief: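 Membranes from Jump-In HEK cells expressing the receptor were incubated with [3H]-ketanserin at about its Kd (from Scatchard analysis) in Tris-HCl pH 7.4 buffer for 1.5 h at 25° C, then filtered and counted. Non-specific binding was defined with 500 μmol/L serotonin, and Ki was taken from dose-response curves.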

The target of assay [2] is human recombinant 5-HT2C receptor (Homo sapiens (Human), UniProt P28335). Put plainly: 5-HT2C receptor binding inhibition test ([3H]-Mesulergine). Particulars: Jump-In HEK cell membrane, 37° C. 2 hours. The procedure, abridged:
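Radioligand displacement on HEK membranes expressing human recombinant 5-HT2C (0.5 μg/well), [3H]-mesulergine near its Kd, in pH 7.4 Tris-HCl buffer with NaCl, MgCl2, KCl, CaCl2 and 0.1% BSA, 2 h at 37° C. Bound radioactivity measured after GF/B filtration; non-specific binding defined with 500 μmol/L serotonin, Ki from dose-response curve.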

The mark [3] stands for this setting: read-out: human serotonin 5-HT2A receptor binding activity Ki.
Setting [4] is: read-out: human serotonin 5-HT2C receptor binding activity Ki.

Where two headings read alike, the source gives them in different places.

human recombinant 5-HT2C receptor, sequence (P28335 33-458): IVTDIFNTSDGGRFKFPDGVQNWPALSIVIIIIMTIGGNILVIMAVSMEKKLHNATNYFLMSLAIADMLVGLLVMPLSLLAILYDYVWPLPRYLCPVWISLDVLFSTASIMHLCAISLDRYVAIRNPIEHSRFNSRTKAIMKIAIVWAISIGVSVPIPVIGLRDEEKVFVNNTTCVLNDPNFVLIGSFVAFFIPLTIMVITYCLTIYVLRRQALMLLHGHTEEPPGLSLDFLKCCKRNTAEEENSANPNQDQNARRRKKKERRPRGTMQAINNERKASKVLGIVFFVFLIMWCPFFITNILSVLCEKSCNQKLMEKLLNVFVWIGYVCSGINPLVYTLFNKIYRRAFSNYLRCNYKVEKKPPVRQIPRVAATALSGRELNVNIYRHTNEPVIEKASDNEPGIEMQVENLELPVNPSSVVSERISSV
human recombinant 5-HT2A receptor, sequence (P28223 whole entry): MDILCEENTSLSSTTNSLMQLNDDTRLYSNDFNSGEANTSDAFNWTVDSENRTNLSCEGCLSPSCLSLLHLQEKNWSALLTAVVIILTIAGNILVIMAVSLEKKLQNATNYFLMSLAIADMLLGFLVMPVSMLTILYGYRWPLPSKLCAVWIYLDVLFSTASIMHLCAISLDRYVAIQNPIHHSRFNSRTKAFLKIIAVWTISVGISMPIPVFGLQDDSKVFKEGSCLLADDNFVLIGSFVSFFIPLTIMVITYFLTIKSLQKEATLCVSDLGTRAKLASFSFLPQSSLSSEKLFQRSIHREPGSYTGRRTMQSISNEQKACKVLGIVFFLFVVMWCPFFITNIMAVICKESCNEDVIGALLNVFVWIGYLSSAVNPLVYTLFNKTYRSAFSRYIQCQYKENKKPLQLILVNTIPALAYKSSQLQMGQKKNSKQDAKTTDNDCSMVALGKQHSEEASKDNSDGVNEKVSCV

For the compound `COc1ccc(CN(Cc2coc(C)n2)C2=NOC3(CCN(C)CC3)N2)cn1` [Compound I-120], the Ki in assay [1] (read-out: h-5-HT2A Ki) and in assay [2] (read-out: h-5-HT2C Ki) was 0.01 to 0.1 µM in each case.

`CC(C)COc1ccc(CN(Cc2ccc(F)cc2)C2=NC(=O)C3(CCN(C)CC3)N2)cc1` [Compound I-021]: the Ki (commonly a dissociation constant, usually derived from enzyme kinetics or from competition with a known ligand) in assay [1] (read-out: h-5-HT2A Ki) was under 0.01 µM; in assay [2] (read-out: h-5-HT2C Ki), 0.01 to 0.1 µM.

As to `CCCOc1ccc(CN(Cc2coc(C)n2)C2=NOC3(CCN(C)CC3)N2)cc1` [Compound I-028], the Ki in assay [1] (read-out: h-5-HT2A Ki) and in assay [2] (read-out: h-5-HT2C Ki) was under 0.01 µM each time.

As to `Cc1nc(CN(Cc2ccc(OCC(F)(F)F)cc2)C2=NOC3(CCN(C)CC3)N2)co1` [Compound I-047], the inhibition constant Ki in assay [1] (read-out: h-5-HT2A Ki) and in assay [2] (read-out: h-5-HT2C Ki) was under 0.01 µM each time.

With `Cc1nc(CN(Cc2ccc(OCC(C)C)cc2)C2=NOC3(CCN(C)CC3)N2)c(C)o1` [Compound I-117], the inhibition constant (Ki) in assay [1] (read-out: h-5-HT2A Ki) and in assay [2] (read-out: h-5-HT2C Ki) was 0.01 to 0.1 µM each time.

Turning to `CC(C)COc1ccc(CN(Cc2coc(C(F)F)n2)C2=NOC3(CCN(C)CC3)N2)cc1` [Compound I-050], the Ki in assay [1] (read-out: h-5-HT2A Ki) and in assay [2] (read-out: h-5-HT2C Ki) was under 0.01 µM in each case.

Consider `Cc1cnc(CN(Cc2ccc(OCC(C)C)cc2)C2=NC(=O)C3(CCN(C)CC3)N2)nc1` [Compound I-061], for which the Ki in assay [1] (read-out: h-5-HT2A Ki) and in assay [2] (read-out: h-5-HT2C Ki) was 0.01 to 0.1 µM each time.

With `Cc1nc(CN(Cc2csc3ccccc23)C2=NOC3(CCN(C)CC3)N2)co1` [Compound I-122], the Ki in assay [1] (read-out: h-5-HT2A Ki) and in assay [2] (read-out: h-5-HT2C Ki) was under 0.01 µM each time.

Consider `CC(C)COc1ccc(CCC2=NOC3(CCN(C)CC3)N2Cc2ccc(F)cc2)cc1` [Compound I-008], for which the results for the Ki in assay [1] (read-out: h-5-HT2A Ki) and in assay [2] (read-out: h-5-HT2C Ki) were 0.01 to 0.1 µM and 0.1 to 0.5 µM, respectively.

In the case of `CC(C)COc1ccc(C[C@H]2C(=O)NC3(CCN(C)CC3)N2Cc2ccc(F)cc2)cc1` [Compound I-002], the Ki in assay [1] (setting [3]) is 0.0111 µM; in assay [2] (setting [4]), 0.0271 µM.

For `Cc1nc(CN(Cc2cc3ccccc3o2)C2=NOC3(CCN(C)CC3)N2)co1` [Compound I-099], the Ki in assay [1] (setting [3]) was 0.00096 µM; in assay [2] (setting [4]), 0.00308 µM.

Consider `Cc1ncc(CN(Cc2ccc(OCC(C)C)cc2)C2=NOC3(CCN(C)CC3)N2)o1` [Compound I-053], for which the Ki in assay [1] (read-out: h-5-HT2A Ki) and in assay [2] (read-out: h-5-HT2C Ki) was under 0.01 µM throughout.

Turning to `Cc1nc(CN(Cc2cc3ccc(Br)cc3s2)C2=NOC3(CCN(C)CC3)N2)co1` [Compound I-102], the Ki in assay [1] (read-out: h-5-HT2A Ki) and in assay [2] (read-out: h-5-HT2C Ki) was under 0.01 µM throughout.

Turning to `CC(C)COc1ccc(CN(Cc2ccn(C3CC3)n2)C2=NOC3(CCN(C)CC3)N2)cc1` [Compound I-100], the Ki was under 0.01 µM in assay [1] (read-out: h-5-HT2A Ki) and 0.01 to 0.1 µM in assay [2] (read-out: h-5-HT2C Ki).

Take `Cc1cc(CN(Cc2ccc(OCC(C)C)cc2)C2=NOC3(CCN(C)CC3)N2)co1` [Compound I-070]: the Ki in assay [1] (read-out: h-5-HT2A Ki) and in assay [2] (read-out: h-5-HT2C Ki) was under 0.01 µM throughout.

For the compound `CCCOc1ccc(CC2=NOC3(CCN(C)CC34CC4)N2Cc2ccn(C)n2)cc1` (single isomer, unassigned) [Compound I-045], the Ki in assay [1] (read-out: h-5-HT2A Ki) fell in the range of 0.01 to 0.1 µM; in assay [2] (read-out: h-5-HT2C Ki), 0.1 to 0.5 µM.

As to `Cc1nc(CN(Cc2cnc3ccccc3c2)C2=NOC3(CCN(C)CC3)N2)co1` [Compound I-095], the Ki was in the range of 0.01 to 0.1 µM in assay [1] (read-out: h-5-HT2A Ki) and 0.1 to 0.5 µM in assay [2] (read-out: h-5-HT2C Ki).

On to `Cc1nc(CN(Cc2ccc(OCC(C)C)cc2F)C2=NOC3(CCNCC3)N2)co1` [Compound I-131], for which the Ki in assay [1] (read-out: h-5-HT2A Ki) and in assay [2] (read-out: h-5-HT2C Ki) was under 0.01 µM each time.

Regarding `CC(C)COc1ccc(CN(Cc2ccn(C(F)F)n2)C2=NOC3(CCN(C)CC3)N2)cc1` [Compound I-015], the Ki in assay [1] (read-out: h-5-HT2A Ki) was under 0.01 µM; in assay [2] (read-out: h-5-HT2C Ki) it was 0.01 to 0.1 µM.

For `CCCOc1ccc(CN(Cc2coc(C)n2)C2=NOC3(CCN(C)CC3)N2)c(Cl)c1` [Compound I-126], the Ki in assay [1] (read-out: h-5-HT2A Ki) and in assay [2] (read-out: h-5-HT2C Ki) was under 0.01 µM in each case.

As for `CCCOc1ccc(CC2=NOC3(CCNCC34CC4)N2Cc2ccn(C)n2)cc1` (racemic) [Compound I-037], the Ki in assay [1] (read-out: h-5-HT2A Ki) and in assay [2] (read-out: h-5-HT2C Ki) was under 0.01 µM in each case.

In the case of `COc1ccc2oc(CN(Cc3coc(C)n3)C3=NOC4(CCN(C)CC4)N3)nc2c1` [Compound I-088], the Ki in assay [1] (read-out: h-5-HT2A Ki) and in assay [2] (read-out: h-5-HT2C Ki) was 0.01 to 0.1 µM throughout.

Regarding `CCCOc1ccc(CN(Cc2coc(C)n2)C2=NOC3(CCNCC3)N2)c(Cl)c1` [Compound I-129], the Ki in assay [1] (read-out: h-5-HT2A Ki) and in assay [2] (read-out: h-5-HT2C Ki) was under 0.01 µM throughout.

As to `CC(C)COc1ccc(CC2=NOC3(CCN(C)CC3)N2Cc2ccc(F)cc2)cc1` [Compound I-001], the inhibition constant (Ki) came out at 0.00482 µM in assay [1] (setting [3]) and 0.0167 µM in assay [2] (setting [4]).

For the compound `Cc1nc(CN(Cc2ccc(OCC(C)C)cc2)C2=NOC3(CCNCC3)N2)co1` [Compound I-048], the Ki in assay [1] (read-out: h-5-HT2A Ki) and in assay [2] (read-out: h-5-HT2C Ki) was under 0.01 µM in each case.

In the case of `COc1ccc(CC2=NOC3(CCN(C)CC34CC4)N2Cc2cc(C)n(C)n2)cc1` (racemic) [Compound I-034], the Ki is under 0.01 µM in assay [1] (read-out: h-5-HT2A Ki) and 0.01 to 0.1 µM in assay [2] (read-out: h-5-HT2C Ki).

`CC(C)COc1ccc(CN(Cc2coc(-c3ccccc3)n2)C2=NOC3(CCN(C)CC3)N2)cc1` [Compound I-118]: the Ki in assay [1] (read-out: h-5-HT2A Ki) and in assay [2] (read-out: h-5-HT2C Ki) was 0.1 to 0.5 µM each time.

For the compound `CC(C)COc1ccc(CN(Cc2ccn(C)n2)C2=NOC3(CCNCC3)N2)cc1` [Compound I-036], the Ki in assay [1] (read-out: h-5-HT2A Ki) and in assay [2] (read-out: h-5-HT2C Ki) was under 0.01 µM in each case.

In the case of `CC(C)COc1ccc(CN(Cc2cn(C)cn2)C2=NOC3(CCN(C)CC3)N2)cc1` [Compound I-019], the Ki is under 0.01 µM in assay [1] (read-out: h-5-HT2A Ki) and 0.1 to 0.5 µM in assay [2] (read-out: h-5-HT2C Ki).

As to `Cc1nc(CN(Cc2nc3cc(Cl)ccc3o2)C2=NOC3(CCN(C)CC3)N2)co1` [Compound I-089], the Ki stood at 0.00149 µM in assay [1] (setting [3]) and 0.00546 µM in assay [2] (setting [4]).

As to `Cc1nc(CN(Cc2ccc(OCC3CC(F)(F)C3)cc2)C2=NOC3(CCN(C)CC3)N2)co1` [Compound I-084], the Ki in assay [1] (read-out: h-5-HT2A Ki) and in assay [2] (read-out: h-5-HT2C Ki) was under 0.01 µM in each case.

As to `CC(C)COc1ccc(CN(Cc2ccc(F)cc2)C2=NC3(CCN(C)CC3)CO2)cc1` [Compound I-020], the Ki in assay [1] (read-out: h-5-HT2A Ki) was in the range of 0.01 to 0.1 µM; in assay [2] (read-out: h-5-HT2C Ki), 0.1 to 0.5 µM.

As for `CC(C)COc1ccc(CN(Cc2coc(C3CC3)n2)C2=NOC3(CCN(C)CC3)N2)cc1` [Compound I-049], the figures for the Ki in assay [1] (setting [3]) and in assay [2] (setting [4]) were 0.000961 µM and 0.000524 µM, respectively.

With `CC(C)COc1ccc(CN(Cc2cnn(C)c2)C2=NOC3(CCN(C)CC3)N2)cc1` [Compound I-046], the Ki in assay [1] (read-out: h-5-HT2A Ki) lay within 0.01 to 0.1 µM; in assay [2] (read-out: h-5-HT2C Ki), 0.1 to 0.5 µM.

As to `CN1CCC2(CC1)NC(N(Cc1ccc(OCC(F)(F)F)cc1)Cc1coc(CF)n1)=NO2` [Compound I-132], the Ki in assay [1] (read-out: h-5-HT2A Ki) and in assay [2] (read-out: h-5-HT2C Ki) was under 0.01 µM each time.

Regarding `Cc1cnc(CN(Cc2ccc(OCC(C)C)cc2)C2=NOC3(CCN(C)CC3)N2)o1` [Compound I-032], the Ki in assay [1] (read-out: h-5-HT2A Ki) and in assay [2] (read-out: h-5-HT2C Ki) was 0.01 to 0.1 µM throughout.

In the case of `Cc1nc(CN(Cc2ccc(OCC(F)F)cc2)C2=NOC3(CCN(C)CC3)N2)co1` [Compound I-066], the Ki in assay [1] (read-out: h-5-HT2A Ki) and in assay [2] (read-out: h-5-HT2C Ki) was under 0.01 µM throughout.

With `CC(C)COc1ccc(CN(Cc2ccccn2)C2=NOC3(CCN(C)CC3)N2)cc1` [Compound I-012], the Ki was under 0.01 µM in assay [1] (read-out: h-5-HT2A Ki) and 0.01 to 0.1 µM in assay [2] (read-out: h-5-HT2C Ki).
